Laboratory results published in US20130023001A1, “USE OF A SUBSTRATE IN A METHOD FOR MEASURING THE ACTIVITY OF PROTEOLYTIC ENZYMES” (priority 2011, published 2013).

What was measured:
Type in all cases: biochemical
[1] = system: unfractionated heparin, Calciparine®; experiment: evaluation method for heparin neutralization by anti-Xa activity (chromogenic para-nitroaniline substrate) with unfractionated heparin; details: for percentage neutralization of Calciparine®, 100×(1−ΔA1/ΔA2): heparin concentrations between 0 and 1.67 IU/ml
Description: (§1) Before referring to the diagrams of the figures, the evaluation method used to quantify the neutralization of the glycosaminoglycans in a blood sample, and in particular a plasma, will be described. This method makes it possible to use both unfractionated heparins and low-molecular-weight heparins. In addition, the method endeavors to test the activity of factor Xa, located at the crossroads of two enzymatic cascades resulting in the formation of thrombin. Moreover, antithrombin, which is a natural inhibitor of thrombin generation, controls the reaction. As soon as it appears, factor Xa couples to its natural substrate, prothrombin, so as to form thrombin. The heparin contained in the sample forms, itself, a complex with antithrombin, which complex promotes the inhibition of factor Xa.
(§2) Thus, a chromogenic substrate based on para-nitroaniline, which factor Xa hydrolyzes, is used and the release of the para-nitroaniline, which can be measured optically, is then inversely proportional to the concentration of heparin present in the medium. A measurement of the anti-Xa activity is thus deduced therefrom.
In this first example, the heparin used is an unfractionated calcium heparin sold under the brand name: “Calciparine®”. According to the evaluation method, the anti-Xa activity is recorded and transferred onto the y-axis, as a function of the heparin concentration of the medium. The heparin concentrations vary between 0 and 1.67 IU/ml and are relatively close to the therapeutic concentrations. The first inclined curve 10 corresponds to a first series of measurements wherein physiological saline is added to the blood sample in addition to the para-nitroaniline-based substrate, while the second inclined curve 12 corresponds to a second series of measurements wherein a neutralizing synthetic polymer, polybrene, intended to neutralize the anticoagulant effects of the heparin, is added to the blood sample. This compound is well known for its effects on heparin and is usually employed in methods for measuring the activity of proteolytic enzymes in order to actually dispense with the anticoagulant effect of heparin.
(§3) The percentage neutralization by the synthetic polymer is determined as being the ratio of the difference in the variation in anti-Xa activity in the medium containing the physiological saline and in the medium containing the neutralizing agent, between two heparin concentrations, and only the variation in activity in the medium containing the physiological saline, between the same two heparin concentrations, this ratio being multiplied by 100 in order to obtain the result as percentage neutralization.
(§4) The percentage neutralization can also be written more compactly: 100×(1−ΔA1/ΔA2), wherein ΔA1 corresponds to the variation in activity in the presence of neutralizing compound and ΔA2 to the variation in the presence of physiological saline. Thus, the parallel measurement of the variation in the presence of physiological saline makes it possible to establish the reference in each series of measurements.

[2] = system: low-molecular-weight heparin, Fragmine®; experiment: evaluation method for heparin neutralization by anti-Xa activity (chromogenic para-nitroaniline substrate) with low-molecular-weight heparin
Description: as §1, §2, §3, §4
Still in this first part of the description, the abovementioned evaluation method was implemented with a low-molecular-weight heparin, Fragmine®.

thrombin = molecular target: T1, thrombin (Homo sapiens, UniProt P00734); experiment: measuring method: thrombin generation fluorescent signal in a blood sample containing heparin
T1 construct: from tissue; host or cells: blood sample (plasma) containing heparin; thrombin generation triggered with tissue factor and calcium
Protocol: According to one embodiment of the measuring method, the enzymatic activity monitored is that of thrombin generation. The principle lies in the monitoring of the measurement of a fluorescent signal after the enzyme substrate has been brought into contact with a blood sample containing heparin, and the reaction conditions allow the thrombin to cleave the substrate between the peptide part and the fluorophore, in this case rhodamine110.
In order to implement the method, a blood sample of 40 μL containing heparin is first of all introduced into a microcuvette. 10 μL of the enzyme substrate in accordance with the invention mixed with an initiating reagent, and 10 μL of activating reagent are added thereto. The initiating reagent is […] and it has a concentration of 16.7×10^−3 mol.L^−1. The activating reagent is tissue factor at a concentration of 10^−12 mol.L^−1.
Next, an excitation signal having a predetermined wavelength is emitted through the microcuvette and the response to the excitation signal is recorded optically over time. Thus, the greater the amount of thrombin generated, the greater the signal response.
According to one particular embodiment, the enzyme substrate chosen is that corresponding to the embodiment variant V(3) of the first part of the detailed description, and of synthetic formula (R^2−GGR)2-Rhod110. […]

| effect of heparin on the thrombin activity measurement (signal curve with versus without heparin) (thrombin; unfractionated heparin 1.5 IU/ml, FIG. 5) | strength of the thrombin activity signal relative to the series of measurements without heparin (thrombin; heparin 1.5 IU/ml, after 30 minutes, FIG. 7) | Substance | percentage neutralization of Calciparine®, 100×(1−ΔA1/ΔA2) [1] | percentage neutralization of Fragmine® ([2]; heparin 0.42 IU/ml) | percentage neutralization of Fragmine® ([2]; heparin 0.83 IU/ml) | percentage neutralization of Fragmine® ([2]; heparin 1.25 IU/ml) | percentage neutralization of Fragmine® ([2]; heparin 1.67 IU/ml) | percentage neutralization of Calciparine® ([1]; heparin 0.42 IU/ml) | percentage neutralization of Calciparine® ([1]; heparin 0.83 IU/ml) | percentage neutralization of Calciparine® ([1]; heparin 1.25 IU/ml) | percentage neutralization of Calciparine® ([1]; heparin 1.67 IU/ml) |
| --- | --- | --- | --- | --- | --- | --- | --- | --- | --- | --- | --- |
| – | – | (EtM-VR)2-Rhod110 [V(2)] | ~100% | 71% | 78% | 79% | 78% | – | – | – | – |
| very small effect | – | (R^2GGR)2-Rhod110 [V(3)] | – | 88% | 90% | 91% | 91% | 90% | 93% | 94% | 96% |
| – | ~3% | EtM-VR-Rhod110-Ac [reference compound] | – | – | – | – | – | – | – | – | – |
| – | – | R^2GGR-Rhod110-Benzoic [V(5)] | – | 77% | 75% | 75% | 74% | 100% | 97% | 98% | 98% |
| – | – | R^2GGR-Rhod110-H [V(4)] | – | 83% | 83% | 72% | 64% | 96% | 90% | 89% | 80% |
| – | – | R^2GGR-Rhod110-R [V(1)] | ~100% | 64% | 65% | 64% | 72% | – | – | – | – |
